The first assay deals with hypoxia-inducible endogenous VEGF expression. Description: Hypoxia-inducible endogenous VEGF expression ELISA in HeLa cells, dose-response EC50 (Table 3). In kind it is cell-based, human. The settings on record: HeLa cells, hypoxic conditions (1% O2), 24-48 hours, VEGF in conditioned media; read-out: ELISA EC50. The method in brief: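 HeLa cells kept 24-48 h under hypoxia (1% O2, 5% CO2, nitrogen balance) with or without compound, e.g. seven concentrations; secreted VEGF in conditioned medium quantified by ELISA against a standard curve. Parallel Cell Titer Glo viability under identical conditions excludes cytotoxicity.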
On to `O=C(Oc1ccc(Cl)cc1)N1CCc2c([nH]c3ccc(Cl)cc23)C1c1ccc(OCCCCn2ccnc2)cc1` (stereo not drawn) [Compound 1001], for which the EC50 lay within 0.008 to 0.04 µM.

The assay is the same for the next values; noted with them: Homo sapiens, HeLa, read-out: ELISA EC50 μM.
Turning to `COCCN(CCCOc1ccc(C2c3[nH]c4ccc(Cl)cc4c3CCN2C(=O)Oc2ccc(F)cc2)cc1)CCOC` (stereo not drawn) [Compound 990], the EC50 is under 0.008 µM.
As to `CN1CCN(CCCCOc2ccc(C3c4[nH]c5ccc(Cl)cc5c4CCN3C(=O)Oc3ccc(F)cc3)cc2)CC1` (stereo not drawn) [Compound 740], the EC50 is 0.04 to 0.2 µM.
The same measure, in the same setting: the figure for `O=C(Oc1ccc(Cl)cc1)N1CCc2c([nH]c3ccc(Cl)cc23)[C@@H]1c1ccc(OCCCN(CCO)CCO)cc1` [Compound 1258] is under 0.008 µM; for `COCCN(CCCOc1cccc(C2c3[nH]c4ccc(Cl)cc4c3CCN2C(=O)Oc2ccc(F)cc2)c1)CCOC` (stereo not drawn) [Compound 1119] it is 0.04 to 0.2 µM; for `O=C(Oc1ccc(Cl)cc1)N1CCc2c([nH]c3ccc(Cl)cc23)[C@@H]1c1ccc(OCCCNC(CO)(CO)CO)cc1` [Compound 1255] it is 0.04 to 0.2 µM.
On the same count and under the same terms, the figure for `COCCN(C)CC(O)COc1ccc(C2c3[nH]c4ccc(Cl)cc4c3CCN2C(=O)Oc2ccc(F)cc2)cc1` (stereo not drawn) [Compound 936] is under 0.008 µM; for `COCCN1CCN(C(=O)COc2ccc(C3c4[nH]c5ccc(Cl)cc5c4CCN3C(=O)Oc3ccc(F)cc3)cc2)CC1` (stereo not drawn) [Compound 1021] it is 0.04 to 0.2 µM.
Same read-out and setting: to `O=C(Oc1ccc(Cl)cc1)N1CCc2c([nH]c3ccc(Cl)cc23)[C@@H]1c1ccc(Oc2ncc(CN3CCOCC3)s2)cc1` [Compound 1660] belongs under 0.008 µM; to `O=C(Oc1ccc(F)cc1)N1CCc2c([nH]c3ccc(Cl)cc23)C1c1ccc(OCCCCCCN2CCCCC2)cc1` (stereo not drawn) [Compound 777], under 0.008 µM.
In the case of `COc1ccc(OC(=O)N2CCc3c([nH]c4ccc(Cl)cc34)C2c2ccc(OCCCN3CCN(C)CC3)cc2)cc1` (stereo not drawn) [Compound 1108], the EC50 is 0.008 to 0.04 µM.
`O=C(Oc1ccc(Cl)cc1)N1CCc2c([nH]c3ccc(Cl)cc23)C1c1ccc(OCCCNCCO)cc1` (stereo not drawn) [Compound 1183]: the EC50 is under 0.008 µM.
Same read-out and setting: to `COCCN(CCOC)CC(O)COc1ccc(C2c3[nH]c4ccc(Cl)cc4c3CCN2C(=O)Oc2ccc(Cl)cc2)cc1` (stereo not drawn) [Compound 918] belongs under 0.008 µM; to `CN1CCN(CCCOc2ccc(C3c4[nH]c5ccc(Cl)cc5c4CCN3C(=O)Oc3ccccc3)cc2)CC1` (stereo not drawn) [Compound 1076], 0.04 to 0.2 µM; to `CCCN(CCC)CCCOc1ccc([C@H]2c3[nH]c4ccc(Cl)cc4c3CCN2C(=O)Oc2ccc(Cl)cc2)cc1` [Compound 1234], under 0.008 µM.

The same assay, now with this note: Homo sapiens; HeLa cells, hypoxic conditions (1% O2), 24-48 hours, VEGF in conditioned media; read-out: ELISA EC50.
Turning to `O=C(Oc1ccccc1)N1CCc2c([nH]c3ccc(Cl)cc23)C1c1ccc(OCC(O)CO)cc1` (stereo not drawn) [Compound 626], the EC50 is 0.008 to 0.04 µM.
Same read-out and setting: to `O=C(Oc1ccc(Cl)cc1)N1CCc2c([nH]c3ccc(Cl)cc23)C1c1ccc(OCCCI)cc1` (stereo not drawn) [Compound 617] belongs 0.008 to 0.04 µM.
The same measure, in the same setting: to `COc1ccc(C2c3[nH]c4ccc(Cl)cc4c3CCN2C(=O)Oc2ccc(F)cc2)c(F)c1` (stereo not drawn) [Compound 1265] belongs 0.008 to 0.04 µM.
In the case of `CC1(C)OC[C@H](CCOc2ccc(C3c4[nH]c5ccc(Cl)cc5c4CCN3C(=O)Oc3ccc(Cl)cc3)cc2)O1` (stereo partly drawn) [Compound 1162], the EC50 was under 0.008 µM.
On the same count and under the same terms, the figure for `Cc1ccc(C2c3[nH]c4ccc(Br)cc4c3CCN2C(=O)Oc2ccc(F)cc2)cc1` (stereo not drawn) [Compound 398] is under 0.008 µM; for `COc1ccc(OC(=O)N2CCc3c([nH]c4ccc(Cl)cc34)C2c2ccc(OC)c(F)c2)cc1` (stereo not drawn) [Compound 1197] it is 0.008 to 0.04 µM.
Consider `O=C(Oc1ccc(F)cc1)N1CCc2c([nH]c3ccc(Cl)cc23)C1c1ccc(OCCCn2cncn2)cc1` (stereo not drawn) [Compound 892], for which the 50% effective concentration (EC50) was under 0.008 µM.
The same measure, in the same setting: to `COC(=O)c1ccc(C2c3[nH]c4ccc(Br)cc4c3CCN2C(=O)Oc2ccccc2Cl)cc1` (stereo not drawn) [Compound 593] belongs 0.008 to 0.04 µM; to `O=C(Oc1ccc(F)cc1)N1CCc2c([nH]c3ccc(Cl)cc23)C1c1cccc(OCCCn2ccnc2)c1` (stereo not drawn) [Compound 1123], 0.04 to 0.2 µM; to `O=C(Oc1ccc(F)cc1)N1CCc2c([nH]c3ccc(Br)cc23)C1c1ccc(C(F)(F)F)cc1` (stereo not drawn) [Compound 397], under 0.008 µM.
For the compound `O=C(Oc1ccc(Br)cc1)N1CCc2c([nH]c3ccc(Cl)cc23)C1c1ccc(OCC2OCCO2)cc1` (stereo not drawn) [Compound 1054], the EC50 was under 0.008 µM.
The same measure, in the same setting: the figure for `O=C(Oc1ccc(Cl)cc1)N1CCc2c([nH]c3ccc(Cl)cc23)C1c1ccc(OCCO)cc1` (stereo not drawn) [Compound 571] is 0.2 to 1 µM.
Take `C=CC(=O)Nc1ccc(C2c3[nH]c4ccc(Cl)cc4c3CCN2C(=O)Oc2ccc(Cl)cc2)cc1` (stereo not drawn) [Compound 500]: the EC50 was 0.04 to 0.2 µM.
With `CS(=O)(=O)c1ccc(C2c3[nH]c4ccc(Cl)cc4c3CCN2C(=O)Oc2ccc(Cl)cc2)cc1` (stereo not drawn) [Compound 360], the EC50 is 0.008 to 0.04 µM.
Same read-out and setting: to `CC(C)c1ccc(C2c3[nH]c4ccc(Cl)cc4c3CCN2C(=O)Oc2ccc(Cl)cc2)cc1` (stereo not drawn) [Compound 348] belongs under 0.008 µM; to `COCCOc1ccc(C2c3[nH]c4ccc(Cl)cc4c3CCN2C(=O)Oc2ccc(F)cc2)cc1` (stereo not drawn) [Compound 388], under 0.008 µM; to `O=C(Oc1ccccc1Cl)N1CCc2c([nH]c3ccc(Cl)cc23)C1c1ccc(C(F)(F)F)cc1` (stereo not drawn) [Compound 594], 0.04 to 0.2 µM.
The same measure, in the same setting: to `COc1ccc(OC(=O)N2CCc3c([nH]c4ccc(Cl)cc34)C2c2ccc(OCCCCl)cc2)cc1` (stereo not drawn) [Compound 944] belongs 0.008 to 0.04 µM.

The assay is the same for the next values; noted with them: Homo sapiens; HeLa cells, hypoxic conditions (1% O2), VEGF ELISA of conditioned media; read-out: ELISA EC50.
On to `CCS(=O)(=O)NCC(O)CCOc1ccc([C@H]2c3[nH]c4ccc(Cl)cc4c3CCN2C(=O)Oc2ccc(Cl)cc2)cc1` (stereo partly drawn) [Compound 1638], for which the EC50 is under 0.008 µM.
The same measure, in the same setting: to `O=C(Oc1ccc(Cl)cc1)N1CCc2c([nH]c3ccc(Cl)cc23)[C@@H]1c1ccc(Oc2cnccn2)cc1` [Compound 1571] belongs under 0.008 µM; to `O=C(Oc1ccc(Cl)cc1)N1CCc2c([nH]c3ccc(Cl)cc23)[C@@H]1c1ccc(OC2COC2)cc1` [Compound 1701], under 0.008 µM; to `[H]/N=c1\scnn1CCOc1ccc(C2c3[nH]c4ccc(Cl)cc4c3CCN2C(=O)Oc2ccc(F)cc2)cc1` (stereo not drawn) [Compound 1415], under 0.008 µM.
On the same count and under the same terms, to `CC(CO)(CO)COc1ccc([C@H]2c3[nH]c4ccc(Cl)cc4c3CCN2C(=O)Oc2ccccc2)cc1` [Compound 1336] belongs 0.008 to 0.04 µM.
Still for that read-out and setting: the figure for `COC(=O)NCC(O)CCOc1ccc([C@H]2c3[nH]c4ccc(Cl)cc4c3CCN2C(=O)Oc2ccc(C)cc2)cc1` (stereo partly drawn) [Compound 1642] is under 0.008 µM.
With `CCS(=O)(=O)NCC(O)CCOc1ccc([C@H]2c3[nH]c4ccc(Cl)cc4c3CCN2C(=O)Oc2ccc(C)cc2)cc1` (stereo partly drawn) [Compound 1646], the EC50 is under 0.008 µM.
Same read-out and setting: the figure for `C#CCCOc1ccc([C@H]2c3[nH]c4ccc(Cl)cc4c3CCN2C(=O)Oc2ccc(Cl)cc2)cc1` [Compound 1614] is under 0.008 µM.
On the same count and under the same terms, to `O=C(Oc1ccc(Cl)cc1)N1CCc2c([nH]c3ccc(Cl)cc23)[C@H]1c1ccc(OCC[C@H](O)CO)cc1` [Compound 1330] belongs over 1 µM; to `O=C(Oc1ccc(Cl)cc1)N1CCc2c([nH]c3ccc(Cl)cc23)[C@@H]1c1ccc(OC2OC(CO)C(O)C(O)C2O)cc1` (stereo partly drawn) [Compound 1695], 0.2 to 1 µM.
Take `O=C(Oc1ccc(Cl)cc1)N1CCc2c([nH]c3ccc(Cl)cc23)[C@@H]1c1ccc(OCc2cn(C3OC(CO)C(O)C(O)C3O)nn2)cc1` (stereo partly drawn) [Compound 1674]: the EC50 is 0.2 to 1 µM.
Same read-out and setting: the figure for `CC(C)SCCCOc1ccc(C2c3[nH]c4ccc(Cl)cc4c3CCN2C(=O)Oc2ccc(Cl)cc2)cc1` (stereo not drawn) [Compound 1553] is under 0.008 µM.

Values taken from US20120157401A1, “METHODS FOR TREATING NEUROFIBROMATOSIS” (PTC Therapeutics, Inc., priority 2009, published 2012).
